Measurements published in paper PMC5075098, “Preclinical Evaluation of the Stability, Safety, and Efficacy of CD101, a Novel Echinocandin” (Antimicrobial Agents and Chemotherapy, 2016).
Where two headings read alike, the source gives them in different places. Starred links: 1 amine or outer side, 2 acyl side, 3 side chain; linkers in the order of their positions; H or OH if unused. Positions of bridges follow the written chain, without caps; N, C: chain ends. Non-standard residues stand in square brackets, D forms with d. Residues, ends and D or L forms follow the SMILES beside them. *: point of attachment. Orn(4R-OH,5R-OCH2CH2NMe3+) = C[N+](C)(C)CCO[C@@H](N[*:3])[C@H](O)C[C@H](N[*:1])C(=O)[*:2]; pTerphenylCO(4''-OnC5H11) = CCCCCOc1ccc(-c2ccc(-c3ccc(C(=O)*)cc3)cc2)cc1; hTyr(3S-OH,4S-OH) = N[C@H](C(=O)O)[C@H](O)[C@@H](O)c1ccc(O)cc1; Pro(3S-OH,4S-Me) = C[C@H]1CN[C@H](C(=O)O)[C@H]1O; Hyp = O=C(O)[C@@H]1C[C@@H](O)CN1

How the values were obtained:
[1] = Metabolic stability in liver microsomes; details: for t1/2, NADPH free / half-life in liver microsomes: 1 μM; for t1/2, NADPH free: up to 2 h at 37°C, LC-MS/MS, first-order decay fit; for half-life in liver microsomes: NADPH state not specified, 37°C; for half-life: liver microsomes
Method: Metabolic stability was determined as described in reference. […] Following incubation, samples were quenched with ice-cold methanol or acetonitrile (ACN), containing an appropriate internal standard and centrifuged to remove precipitated protein, and the supernatants were analyzed to quantitate the remaining parent. […] Data were converted to the percentage remaining by dividing by the time zero concentration value. Data were fit to a first-order decay model to determine half-life. Intrinsic clearance was calculated from the half-life and the protein concentrations.

[2] = Plasma protein binding, ultracentrifugation; type: in vitro ADME; details: human, ∼500,000 × g 2.5 h at 37°C, LC-MS/MS, SEM, read-out: % of protein bound (SEM) (converted)
Method: Ultracentrifugation ([15]) was used to compare human plasma protein binding of CD101 and anidulafungin. […] Following ultracentrifugation, the supernatant was transferred to a microtiter plate containing 50 μl plasma for matrix-matching purposes and quenched with 400 μl of cold acetonitrile (ACN) with 0.1% formic acid containing diclofenac as an internal standard. Quenched samples were centrifuged for 5 min at 10°C (e.g., 3,100 rpm [2,000 × g]) to sediment the precipitated proteins, and 50 μl supernatant was transferred to a microtiter plate containing 100 μl of water prior to analysis by LC-MS/MS. The percentage bound was the difference between 100% and the percentage free (the ratio of the concentration in supernatant to the total concentration).

[3] = Plasma protein binding, rapid equilibrium dialysis; type: in vitro ADME, Sprague-Dawley rat; details: rat, pH 7.4, read-out: protein bound (converted)
Method: (§1) Rapid equilibrium dialysis (RED) ([16]) was used to determine cross-species protein binding of CD101 in CD-1 mouse, Sprague-Dawley rat, cynomolgus monkey, chimpanzee, and human plasma. […] Dialysis buffer (350 μl of phosphate-buffered saline [PBS], pH 7.4, with 100 mM sodium phosphate) was loaded into the buffer (left) channel of the RED device. The device was agitated gently at 37°C for 4 h. Samples were placed into a new 96-well plate for matrix matching (25 μl of plasma added to the dialysis buffer aliquots or 25 μl of dialysis buffer to the plasma aliquots). […] Following centrifugation, 200 μl of the supernatant was transferred to a clean 96-well plate and evaporated to dryness at 37°C under nitrogen. Samples were reconstituted in 100 μl of 1:1 acetonitrile-water prior to analysis by LC-MS/MS. The percentage bound was calculated as the difference between 100% and the percentage free (the ratio of the concentration in supernatant to the concentration in plasma).

[4] = Plasma protein binding, rapid equilibrium dialysis; type: in vitro ADME, cynomolgus monkey; details: monkey, pH 7.4, read-out: protein bound (converted)
Method: as §1

[5] = Plasma protein binding, rapid equilibrium dialysis; type: in vitro ADME, chimpanzee; details: pH 7.4, read-out: protein bound (converted)
Method: as §1

[6] = Plasma protein binding, rapid equilibrium dialysis; type: in vitro ADME; details: human, pH 7.4, read-out: protein bound (converted)
Method: as §1

[7] = rat
C. albicans R303 [8] = details: CLSI broth microdilution, read after 24 h at 35°C, prominent growth inhibition (∼50%)
Method: (§2) Enumeration of MIC and MEC assay inoculum viable counts was performed by plating aliquots of the starting assay inoculum on Sabouraud dextrose agar.

[9] = 4-week repeat-dose, ref Ong et al., submitted, cited from earlier work
Text: The studies described herein are part of a comprehensive series of safety, pharmacology, and toxicology studies of up to 4 weeks' duration as well as genetic toxicology studies, as required for an investigational new drug application. The results provide important insights for further research and development of CD101 and are best considered in this broader, developing context.

[10] = system: A. fumigatus (ATCC 13073); experiment: MEC/MIC, CLSI broth microdilution; details: 24 h at 35°C, rounded/compact hyphal morphology
Method: as §2

[11] = CYP450 inhibition in human liver microsomes; details: pH 7.4, IC50, human liver microsomes, 0.03 to 30 μM, 5 min at 37°C, pH 7.4, LC-MS/MS, duplicate
Method: The final DMSO content in the reaction mixture was equal in all solutions used within an assay and was less than 0.2%. […] After incubation for 5 min at 37°C, the reactions were terminated by addition of methanol-containing internal standard (propranolol) for analytical quantification. The quenched samples were incubated at 4°C for 10 min and centrifuged at 4°C for 10 min.

C. albicans R303 [12] = experiment: Neutropenic mouse model of C. albicans infection, kidney colony counts; details: for log reduction in CFU per gram relative to vehicle: 24, 48, 72 h
Method: Immunosuppression was induced by two intraperitoneal (i.p.) injections of cyclophosphamide at 150 mg/kg 4 days before and 100 mg/kg 1 day before inoculation. […] The animals in the fluconazole group were sacrificed 48 h after infection.

With `CCCCCOc1ccc(-c2ccc(-c3ccc(C(=O)N[C@H]4C[C@@H](O)[C@@H](OCC[N+](C)(C)C)NC(=O)[C@@H]5[C@@H](O)[C@@H](C)CN5C(=O)[C@H]([C@@H](C)O)NC(=O)[C@H]([C@H](O)[C@@H](O)c5ccc(O)cc5)NC(=O)[C@@H]5C[C@@H](O)CN5C(=O)[C@H]([C@@H](C)O)NC4=O)cc3)cc2)cc1` [CD101] ({pTerphenylCO(4''-OnC5H11)}-[Orn(4R-OH,5R-OCH2CH2NMe3+)]T[Hyp][hTyr(3S-OH,4S-OH)]T[Pro(3S-OH,4S-Me)]; lactam 1-C) the “t1/2, NADPH free” value ([1]; human liver microsomes without NADPH) was over 4 h, the “half-life in liver microsomes” value ([1]; human microsomes) was at least 4 h and the half-life ([1]; human) was over 4 h. The “t1/2, NADPH free” value ([1]; monkey liver microsomes without NADPH) was over 4 h, the “half-life in liver microsomes” value ([1]; monkey microsomes) was at least 4 h and the half-life ([1]; monkey) was over 4 h. It also gave a microsomal CLint ([1]; monkey, microsomes) of 2.1 µL/min/mg, a fraction unbound ([2]; 1 μg/ml) of 0.02 and a fraction unbound ([2]; 5 μg/ml) of 0.017. For the same compound, the fraction unbound [3] was 0.022, the fraction unbound [4] was 0.011 and the fraction unbound [5] was 0.012. It also gave a fraction unbound [6] of 0.013, a half-life ([7]; liver microsomes) of over 4 h and a half-life ([7]; microsomes) of 3.99 h. For the same compound, the microsomal CLint ([7]; microsomes) was 9.6 µL/min/mg, the MIC (C. albicans R303 [8]) was 0.12 µg/mL and the “no observed adverse effect level relative to the efficacious plasma exposure level” value ([9]; cynomolgus monkeys) was 47 times. For the same compound, the “no observed adverse effect level relative to the efficacious plasma exposure level” value ([9]; rats) was 34 times, the MEC [10] was 0.004 µg/mL and the IC50 ([11]; midazolam substrate (2.5 μM)) was 29 µM. For the same compound, the IC50 ([11]; testosterone substrate (50 μM)) was over 30 µM, the “log reduction in CFU per gram relative to vehicle” value (C. albicans R303 [12]; 0.2 mg/kg single i.v. dose) was “less than 1 log” and the “log reduction in CFU per gram relative to vehicle” value (C. albicans R303 [12]; 0.4 mg/kg single i.v. dose) was “up to 1.7 log”. For the same compound, the “log reduction in CFU per gram relative to vehicle” value (C. albicans R303 [12]; 0.6 mg/kg single i.v. dose) was “up to 2.9 log”, the “log reduction in CFU per gram relative to vehicle” value (C. albicans R303 [12]; 0.8 mg/kg single i.v. dose) was “up to 4.7 log” and the “antimicrobial effect (≥99%, 2-log reduction in CFU per gram)” value (C. albicans R303 [12]; CD101 0.6 and 0.8 mg/kg i.v., at 24, 48, and 72 h) was “significant”.
